pIC50: −log10 of the molar value.
tested on: BT20 Cell; assay: Cancer Cell Lysate Total L-Glutamate Assay; assay type: cell-based; details: Homo sapiens, BT-20, 2 h, total L-glutamate in cell lysate, BT20 cells, 2 hour incubation with test compound
Procedure, shortened: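 BT20 and other cancer lines at ~80% confluence were given fresh L-glutamine-containing medium, then treated with serially diluted compound (0.5% DMSO) for 2 hours at 37° C. Washed cells were lysed by freeze-thaw and sonication. Lysate glutamate was measured via glutamate oxidase/HRP/50 μM Amplex Red fluorescence (ex 530-560, em 585 nm); IC50 by four-parameter logistic fit.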

pIC50 | SMILES
7.77 | O=C(Cc1ccccc1)Nc1nnc(CC2CCC(c3nnc(NC(=O)Cc4ccccc4)s3)C2)s1 (racemic) [Example 9, (rac)-2-phenyl-N-(5-{[(cis)-3-{5-[(phenylacetyl)amino]-1,3,4-thiadiazol-2-yl}cyclopentyl]methyl}-1,3,4-thiadiazol-2-yl)acetamide]
5.89 | CCNc1nnc(C2CCC(Cc3nnc(NC(C)=O)s3)C2)s1 (racemic) [Example 66, (rac)-N-[5-({(cis)-3-[5-(ethylamino)-1,3,4-thiadiazol-2-yl]cyclopentyl}methyl)-1,3,4-thiadiazol-2-yl]acetamide]
5.89 | CC(=O)Nc1nnc([C@@H]2CC[C@H](Cc3nnc(NC(=O)Cc4ccc(C)nc4)s3)C2)s1 (single isomer, unassigned) [Example 54, N-[5-({(cis)-3-[5-(acetylamino)-1,3,4-thiadiazol-2-yl]cyclopentyl}methyl)-1,3,4-thiadiazol-2-yl]-2-(6-methylpyridin-3-yl)acetamide]
9.15 | CCC(=O)Nc1ccc(C[C@H]2C[C@@H](c3nnc(NC(=O)Cc4ccccn4)s3)C2)nn1 (single isomer, unassigned) [Example 73]
7.88 | O=C(Cn1cccn1)Nc1nnc(C[C@H]2CC[C@@H](c3nnc(NC(=O)Cc4ccccn4)s3)C2)s1 (racemic) [Example 142, (rac)-2-(1H-pyrazol-1-yl)-N-(5-{[(cis)-3-{5-[(pyridin-2-ylacetyl)amino]-1,3,4-thiadiazol-2-yl}cyclopentyl]methyl}-1,3,4-thiadiazol-2-yl)acetamide]
6.56 | CC(=O)Nc1nnc(C[C@@H]2CC[C@H](c3nnc(NC(=O)Cc4cncnc4)s3)C2)s1 (single isomer, unassigned) [Example 58, N-{5-[(cis)-3-{[5-(acetylamino)-1,3,4-thiadiazol-2-yl]methyl}cyclopentyl]-1,3,4-thiadiazol-2-yl}-2-(pyrimidin-5-yl)acetamide]
9.70 | O=C(Cc1ccccc1)Nc1ccc(C[C@H]2C[C@@H](c3nnc(NC(=O)Cc4ccccn4)s3)C2)nn1 (single isomer, unassigned) [Example 118, 2-phenyl-N-{6-[(cis-3-{5-[(pyridin-2-ylacetyl)amino]-1,3,4-thiadiazol-2-yl}cyclobutyl)methyl]pyridazin-3-yl}acetamide]
< 4.39 | Nc1nnc(C[C@H]2CC[C@@H](c3nnc(N)s3)C2)s1 (single isomer, unassigned) [Example 41]
6.70 | C[C@H](C(=O)Nc1nnc(C[C@H]2CC[C@@H](c3nnc(NC(=O)[C@@H](C)c4cccnc4)s3)C2)s1)c1cccnc1 (single isomer, unassigned) [Example 32, 2-(pyridin-3-yl)-N-(5-{[(cis)-3-(5-{[2-(pyridin-3-yl)propanoyl]amino}-1,3,4-thiadiazol-2-yl)cyclopentyl]methyl}-1,3,4-thiadiazol-2-yl)propanamide]
8.70 | Cn1cnc(CC(=O)Nc2nnc([C@H]3CC[C@@H](Cc4ccc(NC(=O)Cc5ccccn5)nn4)C3)s2)c1 (relative stereo) [Example 128, 2-(1-methyl-1H-imidazol-4-yl)-N-{5-[(cis)-3-({6-[(pyridin-2-ylacetyl)amino]pyridazin-3-yl}methyl)cyclopentyl]-1,3,4-thiadiazol-2-yl}acetamide]
8.16 | CC(=O)Nc1nnc([C@@H]2CC[C@H](Cc3nnc(NC(=O)Cc4cn5ccccc5n4)s3)C2)s1 (racemic) [Example 149, (rac)-N-[5-({(cis)-3-[5-(acetylamino)-1,3,4-thiadiazol-2-yl]cyclopentyl}methyl)-1,3,4-thiadiazol-2-yl]-2-(imidazo[1,2-a]pyridin-2-yl)acetamide]
9.40 | CC(C)C(=O)Nc1ccc(C[C@@H]2CC[C@H](c3nnc(NC(=O)Cc4ccccn4)s3)C2)nn1 (single isomer, unassigned) [Example 77, 2-methyl-N-(6-{[(cis)-3-{5-[(pyridin-2-ylacetyl)amino]-1,3,4-thiadiazol-2-yl}cyclopentyl]methyl}pyridazin-3-yl)propanamide]
8.89 | O=C(Cc1ccccn1)Nc1ccc(C2CCC(Cc3nnc(NC(=O)Cc4ccccn4)s3)C2)nn1 (racemic) [Example 26, 2-(pyridin-2-yl)-N-{5-[(3-{6-[(pyridin-2-ylacetyl)amino]pyridazin-3-yl}cyclopentyl)methyl]-1,3,4-thiadiazol-2-yl}acetamide]
9.05 | O=C(Cc1ccccn1)Nc1ccc(C[C@@H]2CC[C@H](c3nnc(NC(=O)Cc4ccccn4)s3)C2)nn1 (single isomer, unassigned) [Example 72, 2-(pyridin-2-yl)-N-{5-[(cis)-3-({6-[(pyridin-2-ylacetyl)amino]pyridazin-3-yl}methyl)cyclopentyl]-1,3,4-thiadiazol-2-yl}acetamide]

Continued, compound first:

SMILES | pIC50
CCC(=O)Nc1nnc(C2CC3(C2)CC(c2nnc(NC(=O)CC)s2)C3)s1 (stereo not shown) [Example 134, N,N′-(spiro[3.3]heptane-2,6-diyldi-1,3,4-thiadiazole-5,2-diyl)dipropanamide] | 8.89
CCNc1nnc([C@H]2C[C@H](Cc3ccc(NC(=O)Cc4ccccn4)nn3)C2)s1 (single isomer, unassigned) [Example 113, N-[6-({trans-3-[5-(ethylamino)-1,3,4-thiadiazol-2-yl]cyclobutyl}methyl)pyridazin-3-yl]-2-(pyridin-2-yl)acetamide] | 8.25
Cn1ccc(CC(=O)Nc2nnc([C@@H]3CC[C@H](Cc4ccc(NC(=O)Cc5ccccn5)nn4)C3)s2)n1 (single isomer, unassigned) [Example 127, 2-(1-methyl-1H-pyrazol-3-yl)-N-{5-[(cis)-3-({6-[(pyridin-2-ylacetyl)amino]pyridazin-3-yl}methyl)cyclopentyl]-1,3,4-thiadiazol-2-yl}acetamide] | 9.15
Cn1ccc(CC(=O)Nc2nnc(C3CC4(C3)CC(c3nnc(NC(=O)Cc5ccn(C)n5)s3)C4)s2)n1 (racemic) [Example 96, (rac)-N,N-(spiro[3.3]heptane-2,6-diyldi-1,3,4-thiadiazole-5,2-diyl)bis[2-(1-methyl-1H-pyrazol-3-yl)acetamide]] | 9.52
Cn1ccc(C(=O)Nc2nnc(C[C@H]3CC[C@@H](c4nnc(NC(=O)Cc5ccccn5)s4)C3)s2)n1 (racemic) [Example 137, (rac)-1-methyl-N-(5-{[(cis)-3-{5-[(pyridin-2-ylacetyl)amino]-1,3,4-thiadiazol-2-yl}cyclopentyl]methyl}-1,3,4-thiadiazol-2-yl)-1H-pyrazole-3-carboxamide] | 8.36
Cc1ccc(CC(=O)Nc2nnc(C[C@H]3C[C@@H](c4nnc(NC(=O)Cc5ccccn5)s4)C3)s2)nc1 (single isomer, unassigned) [Example 111, 2-(5-methylpyridin-2-yl)-N-{5-[(cis-3-{5-[(pyridin-2-ylacetyl)amino]-1,3,4-thiadiazol-2-yl}cyclobutyl)methyl]-1,3,4-thiadiazol-2-yl}acetamide] | 8.92
O=C(Cc1ccccn1)Nc1ccc(C2CC3(C2)CC(c2ccc(NC(=O)Cc4ccccn4)nn2)C3)nn1 (racemic) [Example 25, N,N′-(spiro[3.3]heptane-2,6-diyldipyridazine-6,3-diyl)bis[2-(pyridin-2-yl)acetamide]] | 9.00
Cn1cnc(C(=O)Nc2nnc(C[C@H]3CC[C@@H](c4nnc(NC(=O)Cc5ccccn5)s4)C3)s2)c1 (racemic) [Example 150, (rac)-1-methyl-N-(5-{[(cis)-3-{5-[(pyridin-2-ylacetyl)amino]-1,3,4-thiadiazol-2-yl}cyclopentyl]methyl}-1,3,4-thiadiazol-2-yl)-1H-imidazole-4-carboxamide] | 8.82
CC(=O)Nc1ccc(C[C@H]2CC[C@@H](c3nnc(NC(=O)Cc4ccccn4)s3)C2)nn1 (single isomer, unassigned) [Example 68, N-{5-[(cis)-3-{[6-(acetylamino)pyridazin-3-yl]methyl}cyclopentyl]-1,3,4-thiadiazol-2-yl}-2-(pyridin-2-yl)acetamide] | 8.15
O=C(Cc1ccccn1)Nc1nnc(CC2CCC(c3nnc(NC(=O)Cc4ccccn4)s3)C2)s1 (racemic) [Example 3, (rac)-2-(pyridin-2-yl)-N-(5-{[(cis)-3-{5-[(pyridin-2-ylacetyl)amino]-1,3,4-thiadiazol-2-yl}cyclopentyl]methyl}-1,3,4-thiadiazol-2-yl)acetamide] | 8.19
CC(C)C(=O)Nc1ccc(C[C@H]2CC[C@@H](c3nnc(NC(=O)Cc4ccccn4)s3)C2)nn1 (single isomer, unassigned) [Example 78, 2-methyl-N-(6-{[(cis)-3-{5-[(pyridin-2-ylacetyl)amino]-1,3,4-thiadiazol-2-yl}cyclopentyl]methyl}pyridazin-3-yl)propanamide] | 8.52
O=C(Cc1ccccn1)Nc1nnc(C[C@H]2C[C@@H](c3nnc(NC(=O)Cc4ccccn4)s3)C2)s1 (single isomer, unassigned) [Example 22, 2-(pyridin-2-yl)-N-{5-[(cis-3-{5-[(pyridin-2-ylacetyl)amino]-1,3,4-thiadiazol-2-yl}cyclobutyl)methyl]-1,3,4-thiadiazol-2-yl}acetamide] | 8.85
COCCC(=O)Nc1nnc([C@H]2CC[C@@H](Cc3ccc(NC(=O)Cc4ccccn4)nn3)C2)s1 (single isomer, unassigned) [Example 122, 3-methoxy-N-{5-[(cis)-3-({6-[(pyridin-2-ylacetyl)amino]pyridazin-3-yl}methyl)cyclopentyl]-1,3,4-thiadiazol-2-yl}propanamide] | 9.40
CC(=O)Nc1nnc(C[C@H]2CCC(c3nnc(NC(=O)Cc4ccncn4)s3)C2)s1 (single isomer, unassigned) [Example 21, N-{5-[(cis)-3-{[5-(acetylamino)-1,3,4-thiadiazol-2-yl]methyl}cyclopentyl]-1,3,4-thiadiazol-2-yl}-2-(pyrimidin-4-yl)acetamide] | < 5.18
